Five sequences from article PMC2248166, “Quantitative peptide binding motifs for 19 human and mouse MHC class I molecules derived using positional scanning combinatorial peptide libraries” (Immunome Research, 2008) can be followed below.

For assay [1], the target named is HLA B*5802 (Homo sapiens, UniProt P01889, A329T/C349S/D201E/D98Y/E176V/E187L/E204Q/E69T/G107R/I218V/I90N/K202T/L105A/N104I/N87E/Q89R/Q94S/R106L/R155S/R180L/R86G/S101N/S121W/S35A/S48A/V127L/V306I/V36M/Y140S/Y91M). The class given is binding.
The target of assay [2] is HLA A*3201 (Homo sapiens, UniProt P04439, A270S/D101S/D185E/E176V/E277Q/F133L/G103R/G107R/G231S/H175R/I121M/I218V/I322F/K168Q/L105A/L300P/L318F/M331R/P208A/P217A/Q94H/R106L/R138Q/S129P/T104I/T323A/T345S/V100E/V321M/V358M). Nature of the assay: biochemical. The class given is binding.
Assay [3] has as its target HLA B*5401 (Homo sapiens, UniProt P01889, A329T/C349S/D138N/D201E/E176V/E187T/E204Q/E69G/I76V/K202T/L119W/R155S/R180L/S121T/S35A/S48A/V127L/V306I/V36M/Y140L). The assay is classed as binding.
For assay [4], the target named is HLA B*3501 (Homo sapiens, UniProt P01889, A329T/A93T/A95T/C349S/D201E/D98Y/E176V/E187L/E204Q/E69T/I218V/K202T/L119I/Q94N/R155S/R180L/S121R/S35A/S48A/T118I/V127L/V306I/V36M/Y140S/Y91F). The assay is classed as binding.
For assay [5], the target named is H-2 D^d (Mus musculus, UniProt P01900). The class given is binding.
H-2 D^d, sequence (P01900 whole entry, looked up): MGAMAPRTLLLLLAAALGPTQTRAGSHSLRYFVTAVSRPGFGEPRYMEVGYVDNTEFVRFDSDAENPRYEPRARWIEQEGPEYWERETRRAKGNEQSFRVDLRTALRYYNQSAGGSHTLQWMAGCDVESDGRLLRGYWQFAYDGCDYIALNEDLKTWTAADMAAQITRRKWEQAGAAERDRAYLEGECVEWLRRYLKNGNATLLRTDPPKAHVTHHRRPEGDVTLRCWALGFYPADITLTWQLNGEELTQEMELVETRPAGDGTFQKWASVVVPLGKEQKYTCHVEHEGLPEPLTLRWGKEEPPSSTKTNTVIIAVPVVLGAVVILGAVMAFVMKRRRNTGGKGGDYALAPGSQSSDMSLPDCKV
Assay [6] has as its target HLA A*0201 (Homo sapiens, UniProt P04439, D140Y/D185E/D98H/E176V/E277Q/G131W/G231S/I119V/I121R/I166T/I218V/L300P/L318F/N151K/N90K/P208A/P217A/Q86G/Q94H/R138H/R169H/T345S). The note with it: positional scanning combinatorial 9-mer library; normalized to 1.0 for the best residue at each position.
For assay [7], the target named is HLA B*5801 (Homo sapiens, UniProt P01889, A329T/C349S/D201E/D98Y/E176V/E187L/E204Q/E69T/G107R/I218V/I90N/K202T/L105A/L119I/N104I/N87E/Q89R/Q94S/R106L/R155S/R180L/R86G/S101N/S121R/S35A/S48A/T118I/V127L/V306I/V36M/Y140S/Y91M). The assay is classed as binding.
Assay [8] concerns the target HLA A*3001 (Homo sapiens, UniProt P04439, D140H/D185E/E176W/F33S/G80R/H175R/K168Q/R138E/R41S). Briefly: biochemical. The assay is classed as binding.
Assay [9] addresses HLA B*1501 (Homo sapiens, UniProt P01889, A329T/A93T/A95T/C349S/D201E/D98Y/E187L/E204Q/E69M/E70A/K202T/N87E/Q94N/R155S/R180W/S121R/S35A/S48A/V306I/V36M/Y140S/Y91S). Briefly: biochemical. The class given is binding.
The target in assay [10] is H-2 D^b (Mus musculus, UniProt P01899). The assay is classed as binding.
H-2 D^b, sequence (P01887 21-119): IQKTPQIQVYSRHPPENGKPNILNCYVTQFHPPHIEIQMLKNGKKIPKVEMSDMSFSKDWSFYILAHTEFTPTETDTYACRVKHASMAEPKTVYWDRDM
H-2 D^b, sequence (P01899 25-362): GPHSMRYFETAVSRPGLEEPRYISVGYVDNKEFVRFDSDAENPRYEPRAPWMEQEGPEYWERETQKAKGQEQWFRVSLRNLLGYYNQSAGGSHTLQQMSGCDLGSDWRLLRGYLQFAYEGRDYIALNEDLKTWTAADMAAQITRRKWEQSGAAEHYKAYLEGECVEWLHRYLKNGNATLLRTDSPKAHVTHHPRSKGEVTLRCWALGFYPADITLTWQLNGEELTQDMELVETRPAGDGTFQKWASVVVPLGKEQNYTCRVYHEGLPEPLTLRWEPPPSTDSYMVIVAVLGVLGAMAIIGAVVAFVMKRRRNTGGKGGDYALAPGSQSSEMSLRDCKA
In assay [11] the target is HLA B*0702 (Homo sapiens, UniProt P01889). The assay is classed as binding. To be noted: positional scanning combinatorial 9-mer library; normalized to 1.0 for the best residue at each position.
In assay [12] the target is HLA B*5101 (Homo sapiens, UniProt P01889, A329T/A93T/A95T/C349S/D138N/D201E/D98Y/E187L/E204Q/E69T/G107R/I218V/K202T/L105A/L119W/N104I/Q94N/R106L/R155S/R180L/S101N/S121T/S35A/S48A/V306I/V36M/Y195H/Y91F). The class given is binding.
Assay [13] deals with HLA B*2705 (Homo sapiens, UniProt P01889, D138H/D201E/E176V/E204Q/G107R/H137Y/K202T/N104T/N87E/Q56L/Q94K/R106L/R155S/R180L/S101D/S121N/S48T/Y140D/Y33H/Y91C). The class given is binding. To be noted: positional scanning combinatorial 9-mer library; normalized to 1.0 for the best residue at each position.
For assay [14], the target named is HLA A*6802 (Homo sapiens, UniProt P04439, A269V/D140Y/D185E/E176V/E277Q/E87N/F33Y/G231S/I121R/I166T/I218V/L180W/L300P/L318F/N151K/P208A/P217A/Q86R/R138H/R169H/S129P/T345S/V36M). The assay is classed as binding.
For assay [15], the target named is HLA B*5301 (Homo sapiens, UniProt P01889, A329T/A93T/A95T/C349S/D201E/D98Y/E176V/E187L/E204Q/E69T/G107R/I218V/K202T/L105A/L119I/N104I/Q94N/R106L/R155S/R180L/S101N/S121R/S35A/S48A/T118I/V127L/V306I/V36M/Y140S/Y91F). The assay is classed as binding.
Assay [16] deals with HLA B*0801 (Homo sapiens, UniProt P01889, A93T/A95T/D138N/E176V/E187T/K202T/Q94N/R180D/S35A/V36M/Y33D/Y91F). Nature of the assay: biochemical. The class given is binding.
In assay [17] the target is H-2 K^k (Mus musculus, UniProt P04223). The assay is classed as binding.
H-2 K^k, sequence (P01887 21-119): as the sequence (P01887 21-119) above
H-2 K^k, sequence (P04223 22-369): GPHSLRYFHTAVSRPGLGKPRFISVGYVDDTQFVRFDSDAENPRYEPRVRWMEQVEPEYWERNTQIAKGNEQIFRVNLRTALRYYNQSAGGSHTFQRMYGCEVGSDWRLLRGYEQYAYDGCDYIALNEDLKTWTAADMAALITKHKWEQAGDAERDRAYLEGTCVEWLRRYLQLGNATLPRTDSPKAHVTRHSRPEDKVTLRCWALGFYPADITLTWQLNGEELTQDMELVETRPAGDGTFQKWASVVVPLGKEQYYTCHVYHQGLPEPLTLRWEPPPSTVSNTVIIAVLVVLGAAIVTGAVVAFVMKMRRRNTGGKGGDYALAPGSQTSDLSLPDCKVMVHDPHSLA
Assay [18] deals with HLA B*1503 (Homo sapiens, UniProt P01889, A329T/A93T/A95T/C349S/D201E/D98Y/E187L/E204Q/K202T/N87E/Q94N/R155S/R180L/S121R/S35A/V306I/V36M/Y140S/Y91S). Nature of the assay: biochemical. The assay is classed as binding.
The target of assay [19] is H-2 K^d (Mus musculus, UniProt P01902). The assay is classed as binding.
H-2 K^d, sequence (P01887 21-119): as the sequence (P01887 21-119) above
H-2 K^d, sequence (P01902 22-368): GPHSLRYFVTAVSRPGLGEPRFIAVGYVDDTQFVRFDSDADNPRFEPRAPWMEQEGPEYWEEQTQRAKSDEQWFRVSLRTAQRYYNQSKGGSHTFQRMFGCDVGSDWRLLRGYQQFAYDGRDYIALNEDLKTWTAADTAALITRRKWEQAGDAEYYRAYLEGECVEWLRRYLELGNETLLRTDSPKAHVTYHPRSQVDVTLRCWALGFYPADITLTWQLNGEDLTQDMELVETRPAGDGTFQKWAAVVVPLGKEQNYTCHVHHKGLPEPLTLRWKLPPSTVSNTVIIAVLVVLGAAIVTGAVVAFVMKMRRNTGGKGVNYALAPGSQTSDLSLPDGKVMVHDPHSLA

Turning to XXXAXXXXX [3064.0061], the “Normalized average relative binding affinity (ARB), HLA B*5802” value in assay [1] worked out at 0.51. In [2], the “Normalized average relative binding affinity (ARB), HLA A*3201” value was 0.38. For the same sequence, the “Normalized average relative binding affinity (ARB), HLA B*5401” value in assay [3] is on record as 0.41. In assay [4], the “Normalized average relative binding affinity (ARB), HLA B*3501” value is 0.42. Also, the “Normalized average relative binding affinity (ARB), H-2 Dd” value in [5] stood at 0.52. The “Normalized average relative binding affinity (ARB), HLA A*0201” value in assay [6] was found to be 0.90. Also, the “Normalized average relative binding affinity (ARB), HLA B*5801” value in [7] was 0.46. The “Normalized average relative binding affinity (ARB), HLA A*3001” value in assay [8] worked out at 0.48. In addition, the “Normalized average relative binding affinity (ARB), HLA B*1501” value in assay [9] was found to be 0.40. In addition, the “Normalized average relative binding affinity (ARB), H-2 Db” value in assay [10] came out at 0.69. Also, in [11], the “Normalized average relative binding affinity (ARB), HLA B*0702” value is on record as 0.23. Further, in assay [12], the “Normalized average relative binding affinity (ARB), HLA B*5101” value was 0.39. In addition, the “Normalized average relative binding affinity (ARB), HLA B*2705” value in assay [13] is 0.28. Also, the “Normalized average relative binding affinity (ARB), HLA A*6802” value in [14] is on record as 0.24. Moreover, in [15], the “Normalized average relative binding affinity (ARB), HLA B*5301” value was found to be 0.36. In assay [16], the “Normalized average relative binding affinity (ARB), HLA B*0801” value is on record as 0.40. Moreover, in assay [17], the “Normalized average relative binding affinity (ARB), H-2 Kk” value amounted to 0.63. In assay [18], the “Normalized average relative binding affinity (ARB), HLA B*1503” value stood at 0.41.
Consider XXXXYXXXX [3064.0100], for which the “Normalized average relative binding affinity(ARB)” value was found to be 0.62 in [1]; 0.28 in assay [2]; 0.084 in assay [3]; 0.22 in assay [4]; 0.24 in assay [5]; 0.33 in assay [7]. In addition, the “Normalized average relative binding affinity(ARB)” value in assay [8] came out at 0.21; in [9], 0.95; in [10] it was 0.013; in [19], 0.015; in assay [12] it was 0.26; in assay [14] it was 0.27. The “Normalized average relative binding affinity(ARB)” value in [15] was 0.087; in assay [16], 0.064; in assay [17], 0.14; in [18], 0.34.
In the case of XXXXXSXXX [3064.0116], the “Normalized average relative binding affinity(ARB)” value in assay [1] is reported as 0.055; in assay [2], 0.80; in assay [3], 0.18; in assay [4], 0.33; in [5] it was 0.63; in assay [7], 0.45. Moreover, the “Normalized average relative binding affinity(ARB)” value is on record as 0.44 in [8]; 0.35 in assay [9]; 0.70 in [10]; 0.25 in assay [19]; 0.32 in [12]; 0.57 in assay [14]. The “Normalized average relative binding affinity(ARB)” value in [15] was 0.17; in [16], 0.052; in assay [17], 0.70; in assay [18], 0.51.
Take XXXXXXMXX [3064.0131]: the “Normalized average relative binding affinity(ARB)” value in assay [1] came out at 0.35; in assay [2] it was 0.10; in assay [3], 0.065; in [4], 0.13; in assay [5], 0.024; in [7] it was 0.30. The “Normalized average relative binding affinity(ARB)” value came out at 0.32 in [8]; 0.54 in [9]; 0.24 in assay [10]; 0.080 in assay [19]; 0.68 in assay [12]; 0.51 in assay [14]. The “Normalized average relative binding affinity(ARB)” value in assay [15] is on record as 0.15; in [16] it was 0.62; in assay [17], 0.064; in assay [18], 0.18.
In the case of XXXXXXXLX [3064.0150], the “Normalized average relative binding affinity(ARB)” value in assay [1] is recorded as 0.57; in assay [2] it was 0.29; in assay [3] it was 0.053; in [4], 0.31; in assay [5], 0.80; in [7] it was 0.43. Moreover, the “Normalized average relative binding affinity(ARB)” value in [8] is reported as 0.23; in assay [9] it was 0.15; in assay [10], 0.46; in assay [19] it was 0.43; in [12], 0.86; in [14] it was 0.16. For the same sequence, the “Normalized average relative binding affinity(ARB)” value in [15] came out at 0.42; in [16], 0.11; in assay [17], 0.54; in assay [18], 0.13.
